# “Also recorded” adds a separate entry of the source.
# How the values were obtained:
# neuroblastoma cell lines = test: Cytotoxicity and growth inhibition in neuroblastoma cell lines; format: cell-based; conditions: various neuroblastoma cell lines
# [1] = as above; format: cell-based; conditions: various neuroblastoma cell lines; read-out: concentration at which cell growth was inhibited, morphology changed and cells eventually died
# [2] = Acid lability of glycolipids (aqueous HCl/methanol, TLC mobility); format: physicochemical; conditions: methanol-aqueous 0.1N HCl 1:1, 90° C., 10 min
# Experimental: Acid-labile glycolipids were detected by hydrolysis of samples in methanol-aqueous 0.1N HCl (1:1, v/v) heated at 90° C. for 10 min, followed by Folch partitioning and TLC examination of lower phase. The glycolipid with high TLC mobility converting to the same mobility as normal cerebroside by this treatment was regarded as the acid-labile cerebroside.
# [3] = system: mouse neuroblastoma Neuro-2A cells; conditions: previously reported for a ganglioside effect; cited from earlier work
compound,measurement,setting,value
"CCCCCCCCCCCCC/C=C/[C@@H](O)[C@@H](N)CO[C@@H]1O[C@H](CO)[C@H](O)[C@H](O)[C@H]1O [psychosine, galactosylsphingosine]",cytotoxic effect / growth inhibition (in words),neuroblastoma cell lines,strong cytotoxic effect; also recorded: cytotoxic effects and inhibited cell growth even at very low doses
same,MCC,[1],10 to 20 µg/mL
CCCCCCCCCCCCCCC[C@@H](O)C(=O)N[C@@H](CO[C@@H]1O[C@H](CO)[C@@H](O)[C@H](O)[C@H]1O)[C@H](O)/C=C/CC/C=C(\C)CCCCCCCCC [Cerebroside],TLC mobility after acid hydrolysis,[2],did not show altered TLC mobility
GT1b,concentration required for ganglioside effect on neurite formation,[3],200 µg/mL

# — patent US5693620A, “Plasmalopsychosines and plasmalocerebrosides” (Oncomembrane, Inc., priority 1994, dated 1997)
